Source: ChEMBL document CHEMBL5325490, “Lipophilic modification of salirasib modulates the antiproliferative and antimigratory activity” (Bioorg Med Chem, 2023)
The source made the active and inactive calls. The rule behind the calls is not given here.

Tests used:
NCI-H1299 [1] = test: Antiproliferative activity against human H1299 cells assessed as inhibition of culture growth incubated for 48 hrs by SRB assay; assay type: functional
T47D = test: Antiproliferative activity against human T47D cells assessed as inhibition of culture growth incubated for 48 hrs by SRB assay; assay type: functional
A549 = test: Antiproliferative activity against human A549 cells assessed as inhibition of culture growth incubated for 48 hrs by SRB assay; assay type: functional
HeLa = test: Antiproliferative activity against human HeLa cells assessed as inhibition of culture growth incubated for 48 hrs by SRB assay; assay type: functional
SW1573 = test: Antiproliferative activity against human SW1573 cells assessed as inhibition of culture growth incubated for 48 hrs by SRB assay; assay type: functional
HBL-100 = test: Antiproliferative activity against human HBL-100 cells assessed as inhibition of culture growth incubated for 48 hrs by SRB assay; assay type: functional
NCI-H1299 [2] = test: Antimigratory activity against human H1299 cells assessed as reduction in cell migration at 50 uM incubated for 24 hrs by wound healing assay; assay type: functional, cell-based
NCI-H1299 [3] = test: Anti-invasive activity in human H1299 cells assessed as reduction in cell invasion at 50 uM incubated for 24 hrs by transwell migration assay; assay type: functional, cell-based
Plasmodium falciparum = test: Antimalarial activity against Plasmodium falciparum assessed as inhibition of parasite growth measured after 72 hrs by NLuc method; assay type: functional, organism-based

C/C(=C\CSc1ccccc1C(=O)O)CCCC(C)CCCC(C)CCCC(C)C (centres undefined)
GI50 (NCI-H1299 [1]): > 100 µM
GI50 (T47D): 18 µM
GI50 (A549): 14 µM
GI50 (HeLa): 12 µM
GI50 (SW1573): 15 µM
GI50 (HBL-100): 14 µM

CC(C)=CCC/C(C)=C/CC/C(C)=C/CSc1ccccc1C(=O)O [SALIRASIB]
GI50 (NCI-H1299 [1]): 85 µM
GI50 (T47D): 42 µM
GI50 (A549): 34 µM
GI50 (HeLa): 34 µM
GI50 (SW1573): 41 µM
GI50 (HBL-100): 22 µM

CC(C)=CCC/C(C)=C/CC/C(C)=C/Cn1cc(CSc2ccccc2C(=O)O)nn1
GI50 (NCI-H1299 [1]): 102 µM
GI50 (T47D): 52 µM
GI50 (A549): 40 µM
GI50 (HeLa): 33 µM
GI50 (SW1573): 40 µM
GI50 (HBL-100): 33 µM

CCCCCCCCCCCCCCCCn1cc(CSc2ccccc2C(=O)O)nn1
GI50 (NCI-H1299 [1]): 27 µM
GI50 (T47D): 20 µM
GI50 (A549): 9.2 µM
GI50 (HeLa): 6.9 µM
GI50 (SW1573): 9.3 µM
GI50 (HBL-100): 14 µM

CC(C)=CCC/C(C)=C/CC/C(C)=C/CC/C(C)=C/CSc1ccccc1C(=O)O
GI50 (T47D): 41 µM
GI50 (A549): 38 µM
GI50 (HeLa): 29 µM
GI50 (SW1573): 37 µM
GI50 (HBL-100): 23 µM

CCCCCCCCSc1ccccc1C(=O)O
Activity (NCI-H1299 [2]): Active
Activity (NCI-H1299 [3]): Active

CCCCCCCCCCSc1ccccc1C(=O)O
Activity (NCI-H1299 [2]): Active
Activity (NCI-H1299 [3]): inactive

CC(C)=CCC/C(C)=C/Cn1cc(CSc2ccccc2C(=O)O)nn1
Activity (NCI-H1299 [2]): inactive

COc1cc([C@@H]2c3cc4c(cc3[C@@H](O[C@@H]3O[C@@H]5CO[C@@H](C)O[C@H]5[C@H](O)[C@H]3O)[C@H]3COC(=O)[C@H]23)OCO4)cc(OC)c1O [ETOPOSIDE]
GI50 (T47D): 22 µM
GI50 (A549): 1.5 µM
GI50 (HeLa): 3.3 µM
GI50 (SW1573): 14 µM
GI50 (HBL-100): 1.4 µM

C/C(=C\Cn1cc(CSc2ccccc2C(=O)O)nn1)CCC[C@H](C)CCC[C@H](C)CCCC(C)C
GI50 (NCI-H1299 [1]): 59 µM
GI50 (T47D): 9.6 µM
GI50 (A549): 5.4 µM
GI50 (HeLa): 4.3 µM
IC50 (Plasmodium falciparum): 9.75 µM
GI50 (SW1573): 5.8 µM
GI50 (HBL-100): 10 µM

CC[C@@]1(O)C(=O)OCc2c1cc1n(c2=O)Cc2cc3ccccc3nc2-1 [CAMPTOTHECIN]
GI50 (T47D): 2 µM
GI50 (HeLa): 0.6 µM
GI50 (SW1573): 0.3 µM
GI50 (HBL-100): 0.2 µM

CC(C)=CCC/C(C)=C/CSc1ccccc1C(=O)O
Activity (NCI-H1299 [2]): Active
Activity (NCI-H1299 [3]): Active

CCCCCCCCn1cc(CSc2ccccc2C(=O)O)nn1
GI50 (NCI-H1299 [1]): > 100 µM
GI50 (T47D): 93 µM
GI50 (A549): 61 µM
Activity (NCI-H1299 [2]): inactive
GI50 (HeLa): 39 µM
GI50 (SW1573): 47 µM
GI50 (HBL-100): 40 µM
